The values that follow come from patent publication US11780845B2 (Relay Therapeutics, Inc., priority 2019, dated 2023).

A value given as a limit tells only on which side of the number the result lay.

The target of assay [1] is FGFR2 (Homo sapiens (Human), UniProt P21802). Kind of assay: Biochemical FGFR2 Caliper assay.
The test system of assay [2] is SNU-16. Kind of assay: Cell SNU-16 assay. Type of assay: cell-based. The note with it: Homo sapiens, SNU-16, SNU-16 cells.

Sequence of FGFR2 (P21802 22-821): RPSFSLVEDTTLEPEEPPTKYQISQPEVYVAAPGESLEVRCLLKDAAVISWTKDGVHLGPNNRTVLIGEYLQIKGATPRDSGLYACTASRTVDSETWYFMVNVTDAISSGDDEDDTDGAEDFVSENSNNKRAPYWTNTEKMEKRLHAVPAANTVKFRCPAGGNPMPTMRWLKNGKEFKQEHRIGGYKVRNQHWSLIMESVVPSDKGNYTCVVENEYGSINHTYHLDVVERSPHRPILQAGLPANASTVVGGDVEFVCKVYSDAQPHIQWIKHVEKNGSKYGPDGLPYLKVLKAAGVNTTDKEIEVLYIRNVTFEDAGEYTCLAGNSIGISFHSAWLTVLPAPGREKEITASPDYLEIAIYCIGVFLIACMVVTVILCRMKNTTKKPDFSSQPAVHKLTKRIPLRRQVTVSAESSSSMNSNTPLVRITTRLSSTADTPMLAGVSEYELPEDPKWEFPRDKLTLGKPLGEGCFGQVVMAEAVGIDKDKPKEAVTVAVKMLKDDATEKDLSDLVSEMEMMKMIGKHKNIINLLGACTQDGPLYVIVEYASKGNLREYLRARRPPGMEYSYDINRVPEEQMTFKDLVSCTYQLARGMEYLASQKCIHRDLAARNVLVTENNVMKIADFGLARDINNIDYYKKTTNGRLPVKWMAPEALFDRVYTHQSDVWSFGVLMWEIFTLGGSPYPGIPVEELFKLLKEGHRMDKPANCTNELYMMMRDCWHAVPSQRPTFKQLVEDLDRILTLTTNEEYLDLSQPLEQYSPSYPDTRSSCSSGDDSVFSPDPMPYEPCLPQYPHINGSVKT

As for `C=C(C)C(=O)Nc1ccc(-c2c(-c3ccc4nn[nH]c4c3)c3c(N)ncnc3n2C)cc1` [Example 1302], the concentration for half-maximal inhibition (IC50) in assay [1] and in assay [2] was 1000 to 100000 nM throughout.

As to `C=C(C)C(=O)Nc1ccc(-c2c(-c3cnc4ccccc4c3)c3c(N)ncnc3n2C)cc1` [Example 1284], the IC50 in assay [1] and in assay [2] was 1000 to 100000 nM each time.

On to `C=C(C)C(=O)Nc1ccc(-c2c(-c3ccc4c(c3)NCCN4C)c3c(N)ncnc3n2C)cc1` [Example 1267], for which the IC50 in assay [1] and in assay [2] was 1000 to 100000 nM throughout.

Take `C=C(C)C(=O)Nc1ccc(-c2c(-c3cnc(-c4ccccc4)s3)c3c(N)ncnc3n2C)cc1` [Example 1293]: the IC50 in assay [1] lay in the range of 100 to 250 nM; in assay [2] it was 250 to 1000 nM.

As for `C=C(C)C(=O)Nc1ccc(-c2c(-c3ccc4c(c3)OCC4c3cccc(C)n3)c3c(N)ncnc3n2C)cc1` (centres unmarked) [Example 907], the half-inhibitory concentration (IC50) in assay [1] was less than 100 nM; in assay [2], not above 100 nM.

For the molecule `COCC#Cc1cc(C)c(-c2c(C3=CC[C@H](C(=O)N4CCC[C@H]4C)CC3)c3c(N)ncnc3n2C)cn1` [Example 1382], the IC50 in assay [1] was less than 100 nM; in assay [2] it was not above 100 nM.

On to `C=C(C)C(=O)Nc1ccc(-c2c(-c3ccc4nc(C)oc4c3)c3c(N)ncnc3n2C)cc1` [Example 1274], for which the IC50 in assay [1] and in assay [2] was 1000 to 100000 nM each time.

As to `C=C(C)C(=O)Nc1ccc(-c2sc3ncnc(N)c3c2-c2ccc(Oc3cccc(C)n3)cc2)cc1` [Example 801], the values for the IC50 in assay [1] and in assay [2] were less than 100 nM and not above 100 nM, respectively.

Consider `C=C(C)C(=O)Nc1nn(C)c(-c2c(-c3ccc(Oc4nccc(C)n4)cc3)c3c(N)ncnc3n2C)c1C` [Example 1010], for which the IC50 was 1000 to 100000 nM in assay [1] and 250 to 1000 nM in assay [2].

Take `C#Cc1cc(C)c(-c2c(-c3ccc(Oc4nccc(C)n4)c(F)c3)c3c(C)ncnc3n2C)cn1` [Example 1163]: the values for the IC50 in assay [1] and in assay [2] were less than 100 nM and not above 100 nM, respectively.

As for `C=CC(=O)Nc1ccc(-c2c(-c3cn[nH]c3)c3c(N)ncnc3n2C)cc1` [Example 1128], the IC50 in assay [1] is less than 100 nM; in assay [2], not above 100 nM.

On to `C=C(C)C(=O)Nc1ccc(-c2c(C3=C(F)C[C@H](C(=O)N4CCCC4)CC3)c3c(N)ncnc3n2C)cc1` [Example 882], for which the half-inhibitory concentration (IC50) in assay [1] and in assay [2] was 1000 to 100000 nM each time.

For `COCC#Cc1cc(C)c(-c2c(C3=CC[C@@H](C(=O)N4CCC[C@H]4C)CC3)c3c(N)ncnc3n2C)cn1` [Example 1383], the IC50 in assay [1] and in assay [2] was 250 to 1000 nM each time.

Consider `C=CS(=O)(=O)N1CCC(c2c(-c3ccc(C(=O)N4CCCC4)cc3)c3c(N)ncnc3n2C)C1` (centres unmarked) [Example 859], for which the IC50 in assay [1] and in assay [2] was 1000 to 100000 nM each time.

Consider `C=C(C)C(=O)Nc1ccc(-c2c(-c3cnc4nncn4c3)c3c(N)ncnc3n2C)cc1` [Example 1351], for which the IC50 in assay [1] and in assay [2] was 1000 to 100000 nM throughout.

In the case of `C#Cc1ncc(-c2c(-c3ccc(Oc4nccc(C)n4)cn3)c3c(C)ncnc3n2C)c(C)c1F` [Example 1488], the 50% inhibitory concentration (IC50) in assay [1] and in assay [2] was 250 to 1000 nM in each case.

Turning to `C=C(C)C(=O)Nc1ccc(-c2c(-c3ccc4ccncc4c3)c3c(N)ncnc3n2C)cc1` [Example 1272], the IC50 in assay [1] and in assay [2] was 1000 to 100000 nM throughout.

Turning to `C=C(C)C(=O)Nc1ccc(-c2c(C3=CCC(C#N)CC3)c3c(N)ncnc3n2C)cc1` (centres unmarked) [Example 1287], the IC50 in assay [1] and in assay [2] was 1000 to 100000 nM throughout.

Turning to `C=CC(=O)N[C@@H]1CCc2ccc(-c3c(-c4ccc(Oc5nccc(C)n5)cc4)c4c(N)ncnc4n3C)cc2C1` (single isomer, unassigned) [Example 944], the IC50 in assay [1] and in assay [2] was 1000 to 100000 nM in each case.

For the molecule `C#Cc1cc2c(cn1)-c1c(-c3ccc(Oc4nccc(C)n4)c(F)c3)c3c(N)ncnc3n1[C@@H](C)CO2` [Example 1442], the figures for the IC50 in assay [1] and in assay [2] were 1000 to 100000 nM and 250 to 1000 nM, respectively.

As to `C=C(C)C(=O)Nc1ccc(-c2c(C3=CC[C@@H](C(=O)N4CCCC4)CC3)c3c(N)ncnc3n2C)c(F)c1` [Example 1002], the IC50 in assay [1] was less than 100 nM; in assay [2] it was not above 100 nM.

With `C=CC(=O)Nc1ccc(-c2c(-c3ccc(Oc4nccc(C)n4)c(F)c3)c3c(C)ncnc3n2C)c(C)c1` [Example 1105], the IC50 was less than 100 nM in assay [1] and not above 100 nM in assay [2].

For the molecule `C=CC(=O)N1C[C@H](c2c(-c3ccc(Oc4cccc(C)n4)cc3)c3c(N)ncnc3n2C)[C@@H](O)C1` [Example 806], the values for the IC50 in assay [1] and in assay [2] were less than 100 nM and 100 to 250 nM, respectively.

Regarding `C=Cc1ncc(-c2c(-c3ccc(Oc4nccc(C)n4)cc3)c3c(N)ncnc3n2C)c(C)n1` [Example 1063], the IC50 in assay [1] is less than 100 nM; in assay [2] it was not above 100 nM.

As to `C=C1CCN(c2ccc(-c3c(C4=CC[C@@H](C(=O)N5CCCC5)CC4)c4c(N)ncnc4n3C)cc2)C1=O` (single isomer, unassigned) [Example 1134], the IC50 in assay [1] lay in the range of 250 to 1000 nM; in assay [2], 100 to 250 nM.

For the molecule `Cc1ccnc(Oc2ccc(-c3c(-c4ccc(NC(=O)C5=COCC5)cc4)n(C)c4ncnc(N)c34)cc2)n1` [Example 952], the IC50 in assay [1] was less than 100 nM; in assay [2] it was not above 100 nM.

Turning to `C#Cc1cc2c(cn1)-c1c(-c3ccc(Oc4nccc(C)n4)c(F)c3)c3c(C)ncnc3n1CCC2` [Example 1445], the values for the IC50 in assay [1] and in assay [2] were less than 100 nM and not above 100 nM, respectively.

As to `C#Cc1cc2cc(-c3c(-c4ccc(Oc5nccc(C)n5)c(F)c4)c4c(N)ncnc4n3C)ccc2cn1` [Example 1402], the IC50 in assay [1] and in assay [2] was 1000 to 100000 nM each time.

For `C=C(C)C(=O)Nc1ccc(-c2c(C3=CC[C@@H](C(=O)NC4CCCC4)CC3)c3c(N)ncnc3n2C)cc1` (single isomer, unassigned) [Example 958], the IC50 is 250 to 1000 nM in assay [1] and not above 100 nM in assay [2].

As for `C=C(C)C(=O)Nc1ccc(-c2[nH]c3ncnc(N)c3c2-c2ccc(S(=O)(=O)C3CCCC3)cc2)cc1` [Example 818], the IC50 in assay [1] and in assay [2] was 250 to 1000 nM each time.

Regarding `C=CC(=O)N[C@@H]1CCN(c2cccc(-c3c(-c4ccc(Oc5cccc(C)n5)cc4)c4c(N)ncnc4n3C)c2)C1` (single isomer, unassigned) [Example 1032], the IC50 was 250 to 1000 nM in assay [1] and not above 100 nM in assay [2].

Consider `C#Cc1cc(C)c(-c2c(C3=CC[C@H](C(=O)N4CCC[C@H]4C#N)CC3)c3c(N)ncnc3n2C)cn1` [Example 1251], for which the IC50 in assay [1] was less than 100 nM; in assay [2], not above 100 nM.

Regarding `C#Cc1nc2cc(-c3c(-c4ccc(Oc5nccc(C)n5)c(F)c4)c4c(C)ncnc4n3C)ccc2[nH]1` [Example 1364], the IC50 in assay [1] is less than 100 nM; in assay [2] it was not above 100 nM.

On to `C=C(C)C(=O)Nc1ccc(-c2cn3ncnc(N)c3c2-c2ccc(C(=O)N3CC4CC3C4)cc2)cc1` [Example 840], for which the concentration for half-maximal inhibition (IC50) in assay [1] was less than 100 nM; in assay [2], not above 100 nM.

Turning to `COCC#Cc1cc(OC)c(-c2c(-c3ccc(Oc4nccc(C)n4)c(F)c3)c3c(C)ncnc3n2C)cn1` [Example 1430], the IC50 in assay [1] is less than 100 nM; in assay [2], not above 100 nM.

With `C#Cc1ccc(-c2c(-c3ccc(C(=O)N4CCCC4)cc3)c3c(N)ncnc3n2C)cn1` [Example 1040], the results for the IC50 in assay [1] and in assay [2] were 1000 to 100000 nM and 250 to 1000 nM, respectively.

For the molecule `C#Cc1cc(OCCO)c(-c2[nH]c3ncnc(N)c3c2-c2ccc(Oc3nccc(C)n3)c(F)c2)cn1` [Example 1447], the IC50 in assay [1] was less than 100 nM; in assay [2], not above 100 nM.

For the molecule `C=C1CCN(c2ccc(-c3c(C4=CC[C@H](C(=O)N5CCCC5)CC4)c4c(C)ncnc4n3C)c(Cl)c2)C1=O` (single isomer, unassigned) [Example 1141], the IC50 in assay [1] was less than 100 nM; in assay [2], not above 100 nM.

Take `C=C(C)C(=O)Nc1ccc(-c2c(C3=CC[C@H](C(=O)N4CCCCCC4)CC3)c3c(N)ncnc3n2C)cc1` (single isomer, unassigned) [Example 977]: the IC50 in assay [1] was less than 100 nM; in assay [2], not above 100 nM.

`C#Cc1nc2cc(-c3c(-c4ccc(Oc5nccc(C)n5)c(F)c4)c4c(N)ncnc4n3C)ccc2[nH]1` [Example 1202]: the IC50 in assay [1] was 1000 to 100000 nM; in assay [2], 250 to 1000 nM.

Take `C=CC(=O)Nc1ccc(-c2[nH]c3ncnc(N)c3c2-c2ccc(Oc3ccn(C)n3)cc2)cc1` [Example 822]: the IC50 in assay [1] and in assay [2] was 250 to 1000 nM each time.

Consider `COCC#Cc1ncc(-c2c(-c3ccc(Oc4nccc(C)n4)cc3)c3c(N)ncnc3n2C)c(C)n1` [Example 1232], for which the IC50 is less than 100 nM in assay [1] and not above 100 nM in assay [2].

Consider `C=CC(=O)N1CC(c2c(C3=CC[C@H](C(=O)N4CCCC4)CC3)c3c(N)ncnc3n2C)C[C@@H]1C` (some centres unmarked) [Example 889], for which the values for the 50% inhibitory concentration (IC50) in assay [1] and in assay [2] were 250 to 1000 nM and 100 to 250 nM, respectively.

On to `C=C(C)C(=O)Nc1cc(C)c(-c2c(-c3ccc(Oc4nccc(C)n4)cc3)c3c(N)ncnc3n2C)cc1F` [Example 1066], for which the IC50 in assay [1] was less than 100 nM; in assay [2], not above 100 nM.

Turning to `C#C[C@H]1CCCN1C(=O)[C@H]1CC=C(c2c(-c3ccc(NC(=O)C(=C)C)cc3)n(C)c3ncnc(N)c23)CC1` (single isomer, unassigned) [Example 950], the IC50 in assay [1] and in assay [2] was 1000 to 100000 nM in each case.

In the case of `C=C(C)C(=O)Nc1ccc(-c2c(C3=CC[C@@]4(CC3)CCN(C)C4=O)c3c(N)ncnc3n2C)cc1` (single isomer, unassigned) [Example 935], the IC50 in assay [1] and in assay [2] was 1000 to 100000 nM throughout.

As to `C=CC(=O)N1CC[C@H](c2c(C3=CC[C@@H](C(=O)N4CCCC4)CC3)c3c(N)ncnc3n2C)C1` (single isomer, unassigned) [Example 874], the IC50 in assay [1] lay in the range of 250 to 1000 nM; in assay [2], 100 to 250 nM.

For `C#Cc1ncc(-c2c(-c3ccc(Oc4nccc(C)n4)cc3)c3c(N)ncnc3n2C)cc1F` [Example 1081], the 50% inhibitory concentration (IC50) in assay [1] and in assay [2] was 250 to 1000 nM each time.

With `C#C[C@@H]1CCCN1C(=O)[C@H]1CC=C(c2c(-c3ccc(NC(=O)C(=C)C)cc3)n(C)c3ncnc(N)c23)CC1` (single isomer, unassigned) [Example 949], the IC50 was in the range of 100 to 250 nM in assay [1] and 1000 to 100000 nM in assay [2].
